Data taken from US8349333B2, “Allergy inhibitor compositions and kits and methods of using the same” (China Agricultural University, priority 2005, dated 2013).

Assays:
[1] = system: cats; test: Dermatological scores of control cats treated with nitenpyram; assay type: in vivo; settings: control groups, FIG. 5
Method: (§1) To determine relationship of infestation and FAD symptom, 10 cats were separated into three groups, including an experimental group with six cats and two control groups with two cats each. One control group was treated nitenpyram, and another was not treated with the nitenpyram. Each experimental cat was lived separated on day 0 and infested with 100 fleas. After two days, all cats in this group were given the nitenpyram to remove the flea from their bodies. Two of the control cats were also given this medicine on day 0. This challenge cycle was repeated every other week for 7 times
Cats were scored by the dermatological assessments two days after ceasing each infestation. The assessments were included erythema, papules, crusts, scale, alopecia, excoriation. The body of each cat was divided into three portions to assess which part might have the most severe clinical outcome. According the previous documented report, three parts were consisted of: (1) back, from the head to the tail of dorsal surface; (2) double lateral abdomen, from the scapula to the tail; (3) chest and underside, from laryngeal to the caudomedial thighs.

[2] = system: cats; test: Blood smear cell counts of control cats treated with nitenpyram; assay type: in vivo
Method: as §1
The anti-coagulant peripheral blood at 2 ml was collected on days 0, 2, 16, 30, 44, 58, 62 from the experiment group and day 0, 14, 28, 42, 56, 60 from the control groups. The same samples were collected after the immunization. A drop of blood was smeared on a clean glass slide. After the smear was dried, the cells were stained with Wright-Giemsa stain for 15 min. After a rinse in deionized water, the smear was gently dried with Kimwipe paper and dehydrated by 96% and 100% ethonol with each 10 seconds treatment. The slide was then treated with xylene for 30 min.
After the staining, nucleus and cytoplasm of blood cell was distinguished by a blue and pink staining. The percentage of each type of cells was counted by a total number of 200 cells in a view under a light microscope.

[3] = peripheral blood, control group with nitenpyram, day 58

CCN(Cc1ccc(Cl)nc1)/C(=C/[N+](=O)[O-])NC [nitenpyram]
dermatology score, cats treated with nitenpyram compared with the ones without treatment [1]: no significant difference
interference with the cell numbers in the cats' peripheral blood ([2]; comparison of the two control groups): not to interfere
Basophils (%) [2, 3]: 0.7%
Eosinophils (%) [2, 3]: 3.4%
Lymphocytes (%) [2, 3]: 21.8%
Monocytes (%) [2, 3]: 3.6%
Neutrophils (%) [2, 3]: 70.5%
